Data from patent publication US11053204B2, “Pyrimidinyloxy benzene derivatives as herbicides” (FMC Corporation, priority 2015, dated 2021).

Key:
Assay type in all cases: in vivo
[1] = test system: Italian ryegrass (Lolium multiflorum); test: Test A postemergence, visual injury rating; details: 0 is no effect, 100 is complete control; for Ryegrass, Italian plant response rating: 125 g ai/ha, 0 to 100 scale, approximately 10 days; for Ryegrass, Italian plant response rating (0 to 100 scale): 500 g ai/ha
Outline: (§1)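 Compounds in non-phytotoxic solvent with surfactant applied as soil spray preemergence, or postemergence to plants 2-10 cm at one- to two-leaf stage, in loam/sand. After approximately 10 days in greenhouse, injury rated visually versus untreated controls, 0 (no effect) to 100 (complete control).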

[2] = test system: barnyardgrass (Echinochloa crus-galli); test: Test A postemergence, visual injury rating; details: 0 is no effect, 100 is complete control; for Barnyardgrass plant response rating: 125 g ai/ha, 0 to 100 scale, approximately 10 days; for Barnyardgrass plant response rating (0 to 100 scale): 500 g ai/ha
Outline: as §1

[3] = test system: blackgrass (Alopecurus myosuroides); test: Test A postemergence, visual injury rating; details: 0 is no effect, 100 is complete control; for Blackgrass plant response rating: 125 g ai/ha, 0 to 100 scale, approximately 10 days; for Blackgrass plant response rating (0 to 100 scale): 500 g ai/ha
Outline: as §1

corn (Zea mays) = test: Test A postemergence, visual injury rating; details: 0 is no effect, 100 is complete control; for Corn plant response rating: 125 g ai/ha, 0 to 100 scale, approximately 10 days; for Corn plant response rating (0 to 100 scale): 500 g ai/ha
Outline: as §1

[4] = test system: galium (catchweed bedstraw, Galium aparine); test: Test A postemergence, visual injury rating; details: 0 is no effect, 100 is complete control; for Galium plant response rating: 125 g ai/ha, 0 to 100 scale, approximately 10 days; for Galium plant response rating (0 to 100 scale): 500 g ai/ha
Outline: as §1

[5] = test system: giant foxtail (Setaria faberii); test: Test A postemergence, visual injury rating; details: 0 is no effect, 100 is complete control; for Foxtail, Giant plant response rating: 125 g ai/ha, 0 to 100 scale, approximately 10 days; for Foxtail, Giant plant response rating (0 to 100 scale): 500 g ai/ha
Outline: as §1

kochia (Kochia scoparia) = test: Test A postemergence, visual injury rating; details: 0 is no effect, 100 is complete control; for Kochia plant response rating: 125 g ai/ha, 0 to 100 scale, approximately 10 days; for Kochia plant response rating (0 to 100 scale): 500 g ai/ha
Outline: as §1

[6] = test system: pigweed (Amaranthus retroflexus); test: Test A postemergence, visual injury rating; details: 0 is no effect, 100 is complete control; for Pigweed plant response rating: 125 g ai/ha, 0 to 100 scale, approximately 10 days; for Pigweed plant response rating (0 to 100 scale): 500 g ai/ha
Outline: as §1

[7] = test system: ragweed (common ragweed, Ambrosia elatior); test: Test A postemergence, visual injury rating; details: 0 is no effect, 100 is complete control; for Ragweed plant response rating: 125 g ai/ha, 0 to 100 scale, approximately 10 days; for Ragweed plant response rating (0 to 100 scale): 500 g ai/ha
Outline: as §1

[8] = test system: wheat (Triticum aestivum); test: Test A postemergence, visual injury rating; details: 0 is no effect, 100 is complete control; for Wheat plant response rating: 125 g ai/ha, 0 to 100 scale, approximately 10 days; for Wheat plant response rating (0 to 100 scale): 500 g ai/ha
Outline: as §1

[9] = test system: blackgrass (Alopecurus myosuroides); test: Test C postemergence, plant response rating; details: for Plant response rating, Blackgrass: scale 0 to 100; for Blackgrass plant response rating: scale 0 to 100 (0 no effect, 100 complete control)
Outline: (§2)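 Pre-emergence: seeds sown in loam soil–sand blend or silt loam and sprayed with test chemicals in a non-phytotoxic solvent mixture with surfactant. Post-emergence: plants 2 to 18 cm (1- to 4-leaf stage) in peat-based potting medium, same formulation. Greenhouse 13 to 15 d; visual rating 0 (no effect) to 100 (complete control) versus controls.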

[10] = test system: chickweed (common chickweed, Stellaria media); test: Test C postemergence, plant response rating; details: for Chickweed plant response rating: scale 0 to 100 (0 no effect, 100 complete control)
Outline: as §2

[11] = test system: foxtail, giant (giant foxtail, Setaria faberii); test: Test C postemergence, plant response rating; details: for Foxtail, Giant plant response rating: scale 0 to 100 (0 no effect, 100 complete control)
Outline: as §2

[12] = test system: galium (catchweed bedstraw, Galium aparine); test: Test C postemergence, plant response rating; details: for Galium plant response rating: scale 0 to 100 (0 no effect, 100 complete control)
Outline: as §2

[13] = test system: oilseed rape (Brassica napus); test: Test C postemergence, plant response rating; details: for Oilseed Rape plant response rating: scale 0 to 100 (0 no effect, 100 complete control)
Outline: as §2

[14] = test system: ryegrass, Italian (Italian ryegrass, Lolium multiflorum); test: Test C postemergence, plant response rating; details: for Ryegrass, Italian plant response rating: scale 0 to 100 (0 no effect, 100 complete control)
Outline: as §2

soybean (Glycine max) = test: Test C postemergence, plant response rating; details: for Soybean plant response rating: scale 0 to 100 (0 no effect, 100 complete control)
Outline: as §2

[15] = test system: waterhemp (common waterhemp, Amaranthus rudis); test: Test C postemergence, plant response rating; details: for Waterhemp plant response rating: 125 g ai/ha, scale 0 to 100 (0 no effect, 100 complete control)
Outline: as §2

[16] = test system: wheat (winter wheat, Triticum aestivum); test: Test C postemergence, plant response rating; details: for Wheat plant response rating: 125 g ai/ha, scale 0 to 100 (0 no effect, 100 complete control)
Outline: as §2

SMILES: O=C(CCCC(F)(F)F)c1c(Oc2ncc(Cl)cn2)cccc1C(F)(F)F [Compound 125]
- Ryegrass, Italian plant response rating [1]: 20
- Ryegrass, Italian plant response rating (0 to 100 scale) [1]: 90
- Barnyardgrass plant response rating [2]: 30
- Barnyardgrass plant response rating (0 to 100 scale) [2]: 90
- Blackgrass plant response rating [3]: 30
- Blackgrass plant response rating (0 to 100 scale) [3]: 90
- Corn plant response rating (corn (Zea mays)): 10
- Corn plant response rating (0 to 100 scale) (corn (Zea mays)): 30
- Galium plant response rating [4]: 100
- Galium plant response rating (0 to 100 scale) [4]: 100
- Foxtail, Giant plant response rating [5]: 50
- Foxtail, Giant plant response rating (0 to 100 scale) [5]: 90
- Kochia plant response rating (kochia (Kochia scoparia)): 100
- Kochia plant response rating (0 to 100 scale) (kochia (Kochia scoparia)): 100
- Pigweed plant response rating [6]: 100
- Pigweed plant response rating (0 to 100 scale) [6]: 100
- Ragweed plant response rating [7]: 30
- Ragweed plant response rating (0 to 100 scale) [7]: 40
- Wheat plant response rating [8]: 20
- Wheat plant response rating (0 to 100 scale) [8]: 30
- Plant response rating, Blackgrass ([9]; 16 g ai/ha): 10
- Plant response rating, Blackgrass ([9]; 31 g ai/ha): 20
- Blackgrass plant response rating ([9]; 62 g ai/ha): 15
- Blackgrass plant response rating ([9]; 125 g ai/ha): 30
- Plant response rating, Chickweed ([10]; 16 g ai/ha, scale of 0 to 100): 70
- Plant response rating, Chickweed ([10]; 31 g ai/ha, scale 0 to 100): 75
- Chickweed plant response rating ([10]; 62 g ai/ha): 90
- Chickweed plant response rating ([10]; 125 g ai/ha): 98
- Plant response rating, Foxtail, Giant ([11]; 16 g ai/ha, scale of 0 to 100): 10
- Plant response rating, Foxtail, Giant ([11]; 31 g ai/ha, scale 0 to 100): 10
- Foxtail, Giant plant response rating ([11]; 62 g ai/ha): 10
- Foxtail, Giant plant response rating ([11]; 125 g ai/ha): 25
- Plant response rating, Galium ([12]; 16 g ai/ha, scale of 0 to 100): 65
- Plant response rating, Galium ([12]; 31 g ai/ha, scale 0 to 100): 70
- Galium plant response rating ([12]; 62 g ai/ha): 80
- Galium plant response rating ([12]; 125 g ai/ha): 90
- Plant response rating, Oilseed Rape ([13]; 16 g ai/ha, scale of 0 to 100): 80
- Plant response rating, Oilseed Rape ([13]; 31 g ai/ha, scale 0 to 100): 85
- Oilseed Rape plant response rating ([13]; 62 g ai/ha): 90
- Oilseed Rape plant response rating ([13]; 125 g ai/ha): 95
- Plant response rating, Ryegrass, Italian ([14]; 16 g ai/ha, scale of 0 to 100): 5
- Plant response rating, Ryegrass, Italian ([14]; 31 g ai/ha, scale 0 to 100): 5
- Ryegrass, Italian plant response rating ([14]; 62 g ai/ha): 10
- Ryegrass, Italian plant response rating ([14]; 125 g ai/ha): 15
- Plant response rating, Soybean (soybean (Glycine max); 16 g ai/ha, scale of 0 to 100): 25
- Plant response rating, Soybean (soybean (Glycine max); 31 g ai/ha, scale 0 to 100): 60
- Soybean plant response rating (soybean (Glycine max); 62 g ai/ha): 65
- Soybean plant response rating (soybean (Glycine max); 125 g ai/ha): 70
- Plant response rating, Waterhemp ([15]; 16 g ai/ha, scale of 0 to 100): 75
- Plant response rating, Waterhemp ([15]; 31 g ai/ha, scale 0 to 100): 80
- Waterhemp plant response rating [15]: 90
- Plant response rating, Wheat ([16]; 16 g ai/ha, scale of 0 to 100): 5
- Plant response rating, Wheat ([16]; 31 g ai/ha, scale 0 to 100): 5
- Wheat plant response rating [16]: 25

SMILES: CCCCC(=O)c1c(Oc2ncc(Cl)cn2)cccc1C(F)(F)F [Compound 130]
- Ryegrass, Italian plant response rating [1]: 20
- Ryegrass, Italian plant response rating (0 to 100 scale) [1]: 90
- Barnyardgrass plant response rating [2]: 90
- Barnyardgrass plant response rating (0 to 100 scale) [2]: 100
- Blackgrass plant response rating [3]: 50
- Blackgrass plant response rating (0 to 100 scale) [3]: 90
- Corn plant response rating (corn (Zea mays)): 20
- Corn plant response rating (0 to 100 scale) (corn (Zea mays)): 50
- Galium plant response rating [4]: 100
- Galium plant response rating (0 to 100 scale) [4]: 100
- Foxtail, Giant plant response rating [5]: 40
- Foxtail, Giant plant response rating (0 to 100 scale) [5]: 90
- Kochia plant response rating (kochia (Kochia scoparia)): 100
- Kochia plant response rating (0 to 100 scale) (kochia (Kochia scoparia)): 100
- Pigweed plant response rating [6]: 100
- Pigweed plant response rating (0 to 100 scale) [6]: 100
- Ragweed plant response rating [7]: 30
- Ragweed plant response rating (0 to 100 scale) [7]: 60
- Wheat plant response rating [8]: 30
- Wheat plant response rating (0 to 100 scale) [8]: 30
- Plant response rating, Blackgrass ([9]; 16 g ai/ha): 5
- Plant response rating, Blackgrass ([9]; 31 g ai/ha): 5
- Blackgrass plant response rating ([9]; 62 g ai/ha): 20
- Blackgrass plant response rating ([9]; 125 g ai/ha): 30
- Plant response rating, Chickweed ([10]; 16 g ai/ha, scale of 0 to 100): 75
- Plant response rating, Chickweed ([10]; 31 g ai/ha, scale 0 to 100): 75
- Chickweed plant response rating ([10]; 62 g ai/ha): 80
- Chickweed plant response rating ([10]; 125 g ai/ha): 90
- Plant response rating, Foxtail, Giant ([11]; 16 g ai/ha, scale of 0 to 100): 10
- Plant response rating, Foxtail, Giant ([11]; 31 g ai/ha, scale 0 to 100): 10
- Foxtail, Giant plant response rating ([11]; 62 g ai/ha): 10
- Foxtail, Giant plant response rating ([11]; 125 g ai/ha): 30
- Plant response rating, Galium ([12]; 16 g ai/ha, scale of 0 to 100): 75
- Plant response rating, Galium ([12]; 31 g ai/ha, scale 0 to 100): 80
- Galium plant response rating ([12]; 62 g ai/ha): 85
- Galium plant response rating ([12]; 125 g ai/ha): 80
- Plant response rating, Oilseed Rape ([13]; 16 g ai/ha, scale of 0 to 100): 70
- Plant response rating, Oilseed Rape ([13]; 31 g ai/ha, scale 0 to 100): 85
- Oilseed Rape plant response rating ([13]; 62 g ai/ha): 95
- Oilseed Rape plant response rating ([13]; 125 g ai/ha): 98
- Plant response rating, Ryegrass, Italian ([14]; 16 g ai/ha, scale of 0 to 100): 5
- Plant response rating, Ryegrass, Italian ([14]; 31 g ai/ha, scale 0 to 100): 10
- Ryegrass, Italian plant response rating ([14]; 62 g ai/ha): 10
- Ryegrass, Italian plant response rating ([14]; 125 g ai/ha): 15
- Plant response rating, Soybean (soybean (Glycine max); 16 g ai/ha, scale of 0 to 100): 40
- Plant response rating, Soybean (soybean (Glycine max); 31 g ai/ha, scale 0 to 100): 55
- Soybean plant response rating (soybean (Glycine max); 62 g ai/ha): 75
- Soybean plant response rating (soybean (Glycine max); 125 g ai/ha): 95
- Plant response rating, Waterhemp ([15]; 16 g ai/ha, scale of 0 to 100): 65
- Plant response rating, Waterhemp ([15]; 31 g ai/ha, scale 0 to 100): 75
- Waterhemp plant response rating [15]: 85
- Plant response rating, Wheat ([16]; 16 g ai/ha, scale of 0 to 100): 10
- Plant response rating, Wheat ([16]; 31 g ai/ha, scale 0 to 100): 5
- Wheat plant response rating [16]: 30
